Experimental data as given in patent US12162889B2, “Luminogens for biological applications” (THE HONG KONG UNIVERSITY OF SCIENCE AND TECHNOLOGY, priority 2016, dated 2024).

Key:
[1] = in methanol; cited from earlier work
Two-photon absorption = type: physicochemical
From the text: The TPA spectrum of AIE dots in water with the wavelength range from 800-1000 nm at 20 nm intervals was investigated. […] Moreover, a 900 nm fs laser expects to have deeper penetration and better focusing capability than the commonly used 770-860 nm Ti:Sapphire fs laser. Therefore, the TTS dots are a promising candidate for two-photon deep-tissue in vivo bioimaging.

HeLa cells = assay: Cell imaging of living HeLa cells with AIE dots; type: cell-based; conditions: dye as AIE dots, 12 h, 37° C.
Procedure: Generally, 1 mg of the AIEgen and 5 mg of DSPE-PEG-Biotin were dissolved in 1 mL of chloroform. Subsequently, 9 mL of Milli-Q water was added into the chloroform solution under sonication for 10 minutes at room temperature using a microtip probe sonicator with an 18 W output (XL2000, Misonix Incorp., USA). The mixture was stirred in the nitrogen flow overnight until the chloroform was completely evaporated. A clear solution was obtained, and the solution was filtered through a 0.45 μm microfilter to result in the formation of AIE dots.
Cell Culture: HeLa cells were cultured in MEM containing 10% FBS and antibiotics (100 units/mL penicillin and 100 µg/mL streptomycin) in a 5% CO2 humidity incubator at 37° C. All culture media were supplemented with 10% heat-inactivated FBS, 100 units/mL penicillin, and 100 μg/mL streptomycin. Before the experiment, the cells were precultured until confluence was reached.
Cell Imaging: HeLa cells were grown overnight on a 35 mm petri dish with a cover slip at 37° C. After removal of the medium, the adherent cells were washed twice with 1× phosphate buffered saline (PBS) buffer. The AIE dots were then added to the chamber. After incubation for 12 hours, the cells were washed three times with 1×PBS buffer. The cells were imaged on a Zeiss laser scanning confocal microscope and analyzed using ZEN 2009 software.

[2] = Absorption spectra in solvents / aqueous media; type: physicochemical
From the text: With introduction of extra arylamine units to the TTB molecule, the absorption peak of TTS is slightly red-shifted due to longer electronic conjugation.
(§1) Due to the higher ΦF and much better processability of TTS, it was chosen for further biological applications. For easy dispersion of the highly hydrophobic TTS molecules in an aqueous environment, the TTS dots were formulated through a simple procedure by a nanoprecipitation method with amphiphilic and biocompatible 1,2-distearoyl-sn-glycero-3-phosphoethanolamine-N [methoxy(polyethyleneglycol)-2000] (DSPE-PEG 2000) as the encapsulation matrix (FIG. 70). […] TTS dots have an absorption maxima at 497 nm in aqueous media, which fits well with the commercial laser excitation at 488 nm. The strong emission of TTS dots (FIG. 71B) peaks at the red region (630 nm) and tails to the near-infrared region (820 nm). It is noteworthy that the Stokes shift of the TTS dots is big enough (>130 nm) to solve the serious problem of the self-quenching effect common in conventional organic dye molecules.

[3] = Photoluminescence (emission) spectra in solvents, THF/water aggregates, powder and dots; type: physicochemical
From the text: The photoluminescence (PL) spectrum of TTS (FIG. 66) is basically a flat line parallel to the abscissa in pure THF. The spectral pattern remains unchanged at water content up to 40%. Afterwards, the PL intensity increases dramatically. The higher the water fraction, the stronger the emission intensity. The emission peak reaches to ˜636 nm. The emission intensity reaches its maximum value at 90% water content, which is 170-fold higher than that in pure THF
When the solvent polarity was increased from Tol to NMP, the emission of TTB, TTA, and TTS are red-shifted with an emission quenching effect. […] However, compared with TTB molecule, TTA and TTS molecules are more sensitive to solvent polarity. TTA and TTS are emissive in Tol, weak emissive in DO and nonemissive in THF with medium polarity. In contrast, TTB is highly emissive in Tol, DO, and THF, and even in the high polarity solvent NMP, TTB is still emissive observed by the naked eye. […] It is probable that even in THF with medium polarity, the conformation of the TTA or TTS becomes twisted and the charge becomes separated.
In pure THF solution, it is non-emissive. The PL intensity remains unchanged at water fraction fw<50%. Afterwards, the PL intensity reaches its maximum value at 90% water content with emission peak at ˜635 nm. Thus, both TTS and TTA are AIE-active.
as §1

[4] = Fluorescence quantum yield and lifetime; type: physicochemical
[5] = Energy band gap and HOMO/LUMO from absorption onset and onset oxidation potential; type: physicochemical
[6] = aggregate, excitation 900 nm laser

## CCN(CC)c1ccc2c(-c3ccccc3C(=O)O)c3ccc(=[N+](CC)CC)cc-3oc2c1.[Cl-] [rhodamine B]
[1]
  ΦF of reference: 41.9%

## c1ccc(C(=C(c2ccccc2)c2ccc(-c3ccc(N(c4ccc(-c5ccc(C(=C(c6ccccc6)c6ccccc6)c6ccccc6)cc5)cc4)c4ccc(-c5sc(-c6ccc(N(c7ccc(-c8ccc(C(=C(c9ccccc9)c9ccccc9)c9ccccc9)cc8)cc7)c7ccc(-c8ccc(C(=C(c9ccccc9)c9ccccc9)c9ccccc9)cc8)cc7)cc6)c6c5N=S=N6)cc4)cc3)cc2)c2ccccc2)cc1 [TPE-TPA-TT, N,N′-(thieno[3,4-b][1,2,5]thiadiazole-5,7-diylbis(4,1-phenylene))bis(4′-(1,2,2-triphenylvinyl)-N-(4′-(1,2,2-triphenylvinyl)-[1,1′-biphenyl]-4-yl)-[1,1′-biphenyl]-4-amine)]
Two-photon absorption
  two-photon absorption properties: excellent two-photon absorption properties

## COc1ccc(C(=C(c2ccccc2)c2ccc(-c3sc(-c4ccc(C(=C(c5ccc(OC)cc5)c5ccc(OC)cc5)c5ccccc5)cc4)c4nc(-c5ccccc5)c(-c5ccccc5)nc34)cc2)c2ccc(OC)cc2)cc1 [MTPE-TP, 5,7-bis(4-(2,2-bis(4-methoxyphenyl)-1-phenylvinyl)phenyl)-2,3-diphenylthieno[3,4-b′]pyrazine]
HeLa cells
  fluorescence in cells: intense red fluorescence was observed in the cellular cytoplasms

## c1ccc(C(=C(c2ccccc2)c2ccc(N(c3ccc(-c4ccc(-c5ccc(N(c6ccc(C(=C(c7ccccc7)c7ccccc7)c7ccccc7)cc6)c6ccc(N(c7ccccc7)c7ccccc7)cc6)cc5)c5nsnc45)cc3)c3ccc(N(c4ccccc4)c4ccccc4)cc3)cc2)c2ccccc2)cc1 [TTS]
[2]; THF (Table 2)
  λab absorption maximum in THF: 481 nm
[2]; solvent DO
  λab absorption maximum: 478 nm
[2]; solvent NMP
  λab absorption maximum: 484 nm
[2]; solvent THF
  λab absorption maximum: 481 nm
[2]; solvent Tol
  λab absorption maximum: 484 nm
[3]; THF solution
  λem emission maximum soln: 641
[3]; THF/water mixture (1:9 by volume)
  λem emission maximum aggr: 636
[3]; THF/water, 10 μM, excitation 480 nm
  emission intensity at 90% water content relative to pure THF: 170 fold
[3]; aggregate state, high water content (90%)
  emission peak in THF/water mixture: ~636 nm
[3]; solid powder
  λem emission maximum powder: 636
[3]; solvent DO, excitation 480 nm
  λem emission maximum: 640 nm
[3]; solvent Tol, excitation 480 nm
  λem emission maximum: 623 nm
[4]; THF solution, in parentheses
  fluorescence quantum yield ΦF soln: (0.1) %
[4]; [6]
  quantum efficiency relative to rhodamine B: 38.5%
[4]; solid powder
  τ fluorescence lifetime of solid powders: 1.86 ns
[4]; solid powder, in parentheses
  solid powders fluorescence quantum yield ΦF: (34.1) %
[5]; LUMO = HOMO + Eg
  LUMO: −2.84 eV
[5]; calculated from the onset of the absorption spectrum
  Eg energy band gap: 2.21 eV
[5]; calculated from the onset oxidation potential
  HOMO: −5.05 eV
Two-photon absorption; [6]
  maximum two-photon absorption cross section: 310 GM

## CCCCCCCCN1c2ccc(-c3ccc(-c4ccc(N(c5ccccc5)c5ccccc5)cc4)c4nsnc34)cc2Sc2cc(-c3ccc(-c4ccc(N(c5ccccc5)c5ccccc5)cc4)c4nsnc34)ccc21 [PTZ-BT-TPA, 4,4′-((10-octyl-10H-phenothiazine-3,7-diyl)bis(benzo[c][1,2,5]thiadiazole-7,4-diyl))bis(N,N-diphenylaniline)]
Two-photon absorption
  two-photon absorption properties: excellent two-photon absorption properties
HeLa cells
  fluorescence in cells: intense red fluorescence was observed in the cellular cytoplasms

## c1ccc(-c2nc3c(-c4ccc(N(c5ccccc5)c5cccc6ccccc56)cc4)c4nsnc4c(-c4ccc(N(c5ccccc5)c5cccc6ccccc56)cc4)c3nc2-c2ccccc2)cc1 [NPB-TQ, N,N′-((6,7-diphenyl-[1,2,5]thiadiazolo[3,4-g]quinoxaline-4,9-diyl)bis(4,1-phenylene))bis(N-phenylnaphthalen-1-amine)]
Two-photon absorption
  two-photon absorption properties: excellent two-photon absorption properties
